Reference: patent publication US20150209384A1, “ORAL PREPARATION FOR PROMOTING EXPRESSION OF TGF-BETA, ORAL PREPARATION FOR INHIBITING PRODUCTION OF PAIN-MEDIATING SUBSTANCE, AND ORAL PREPARATION FOR PREVENTING EDEMA” (KEWPIE CORPORATION, priority 2012, published 2015)

Key:
bradykinin = assay: Measurement of bradykinin in paw exudate (EIA), rat carrageenan model; assay type: in vivo; conditions: for total amount of bradykinin in exudate: vs negative control, FIG. 5
Procedure: (§1) Rats (Wistar (SPF), male, four-weeks-old at the time of purchase, purchased from Japan SLC, Inc.) were acclimatized and fed for 7 days, and then grouped based on their body weights on the day before administration. The above-mentioned test solution was administered by drinking ad libitum for 4 weeks. After the administration by drinking for 4 weeks, the rats were selected and grouped so that there was no difference in body weight between groups at the time of carrageenan induction (see Table 1), and then the rats were each used for a pain model to be described later.
(§2) A rat pain model was produced by subcutaneously injecting 0.1 mL of a 1% A-carrageenan (manufactured by SIGMA) solution into the plantar surface of the rat hind paw with reference to methods of Ohuchi et al. (Kazuo Ohuchi, “Seibutsu Yakkagaku Jikken Koza (Biological pharmaceutical science experimental course) (Vol. 12) Inflammation and Allergy I-1”, Chapter 1, foreign matter-induced inflammation model: pp. 30-51) and Masahiro Noguchi et al. (Masahiro Noguchi, et al: Enzymologic and pharmacologic profile of loxoprofen sodium and its metabolites. Biol. Pharm. Bull. 2005.28.2075-2079). It should be noted that the 1% λ-carrageenan solution was stirred with a stirrer until immediately before use (induction). After that, a paw volume was measured using a paw volume measuring apparatus. In addition, blood was collected from the rat pain model under isoflurane anesthesia. After that, an exudate was collected from the hind paw, and the measurement of PGE2 and bradykinin in the exudate was performed.
(§3) A 15-mL centrifugation tube, which had been measured for its tare weight in advance, was prepared, and a container having a 2-mL pipette tip cut at the tip in the centrifugation tube was prepared. The induced paw of the animal after the end of the blood collection was amputated from 1 cm above the malleolus using bone scissors or the like, and measured for its weight. The skin at the plantar site of the rat was deeply incised using a scalpel to make 2 incisions in a length direction by 4 incisions in a width direction which is perpendicular to the length direction. This paw skin tissue was placed with the toe down into the above-mentioned container, and cooling centrifugation was performed using a centrifugation machine at 3,000 rpm for 15 minutes to collect an exudate. In addition, in a non-treated group, the collection was performed from the left and right hind paws. The mass of the collected exudate was measured using an electrobalance. To the exudate after the end of the mass measurement were added 100 μL of 20 mM aspirin-containing physiological saline and 250 μL of 20 unit/mL heparin-containing physiological saline, the resultant was centrifuged, and then the supernatant was used as an exudate sample. In addition, the exudate was dispensed into a tube. The exudate sample was frozen with liquid nitrogen and cryopreserved until use.
The measurement of bradykinin in the exudate was performed using “Bradykinin, EIA Kit, High Sensitivity, Bachem Americans.” The operations were performed in conformity with the accompanying protocol of the kit.

[1] = tested on: rat carrageenan-induced inflammatory pain model; assay: Rat carrageenan-induced inflammatory pain model: paw edema, paw volume, exudate amount; assay type: in vivo; conditions: for exudate amount of the paw: FIG. 3; for paw edema: vs negative control (distilled water), hyaluronic acid 200 mg/kg/day by drinking for 4 weeks, ibuprofen 100 mg/kg oral 1 hour before induction, FIG. 1
Procedure: Rats (Wistar (SPF), male, four-weeks-old at the time of purchase, purchased from Japan SLC, Inc.) were acclimatized and fed for 7 days, and then grouped based on their body weights on the day before administration. The above-mentioned test solution was administered by drinking ad libitum for 4 weeks.
It should be noted that the 1% λ-carrageenan solution was stirred with a stirrer until immediately before use (induction). After that, a paw volume was measured using a paw volume measuring apparatus. In addition, blood was collected from the rat pain model under isoflurane anesthesia. After that, an exudate was collected from the hind paw, and the measurement of PGE2 and bradykinin in the exudate was performed.
The tuberal region of the pisiform bone outside the rat right hind paw was marked with marking ink so that volume measurement was uniform. Distilled water was charged up to a target water surface of a measuring chamber of the paw volume measuring apparatus. A measurer restrained the rat, and while lightly pressing the femoral region of the paw to be measured, put the paw at a position at which the mark leveled off and reached the target water surface. Then, a paw volume was recorded using a foot switch connected to the apparatus. It should be noted that the measurement of the paw volume was performed three times for each animal individual, and a mean thereof was determined.
Regarding a measured value for the paw volume, an amount of change Δ mL was determined from the following calculation equation for each individual animal, and a group mean and its standard error (SE) were calculated.
Amount of change A mL=Value at the time of each measurement after carrageenan administration−Value before (0 hours after) carrageenan administration
as §3

PGE2 = assay: Measurement of PGE2 in paw exudate (ELISA), rat carrageenan model; assay type: in vivo; conditions: vs negative control; for total amount of PGE2 in exudate: FIG. 7; for concentration of PGE2 in exudate: FIG. 8
Procedure: as §1, §2, §3
The measurement of PGE2 (ELISA) in the exudate was performed using “Prostaglandin E2 Kit-Monoclonal, ACE.” The operations were performed in conformity with the accompanying protocol of the kit.

[2] = tested on: TGF-β1 mRNA in human colon adenocarcinoma-derived HT29 cells; assay: TGF-β expression promoting action in HT29 cells (TGF-β1 mRNA, real-time PCR); assay type: cell-based; conditions: hyaluronic acid 0.01 mg/ml, LPS 200 ng/mL added 1 hour later, 24 hours after addition of hyaluronic acid, control = 1, FIG. 11
Procedure: In order to confirm the TGF-β expression promoting action of hyaluronic acid in human colon adenocarcinoma-derived HT29 cells (purchased from DS Pharma Biomedical Co., Ltd.), the measurement of the production amount of TGF-β mRNA in the case of treating HT29 cells with hyaluronic acid was performed by the following method.
Hyaluronic acid was added to a culture supernatant, and 1 hour after that, a lipopolysaccharide (LPS) was added at a concentration of 200 ng/mL. 23 hours after that, mRNA of cells was collected, and the determination of TGF-β1 mRNA using real-time PCR equipment (Mx 3005, Agilent Technologies) was performed. First, cDNA was synthesized from mRNA by reverse transcription, and a PCR reaction was performed using the cDNA. That is, an amplification reaction involving repeating thermal denaturation (95° C., 10 seconds) and annealing (60° C., 20 seconds) 40 times was performed, and simultaneously, DNA amplification was measured by monitoring fluorescence from CybrGreen to be conjugated with DNA, and determination in the case of defining the mRNA amount of a control as 1 was performed. The human TGF-31 primers used were designed with the software Primer BLAST made available to the public by the National Center for Biotechnology Information (NCBI). Their sequences are 5′-[…]-3′ (Forward) and 5′-[…]-3′ (Reverse). […]

TGF-β1 = assay: Measurement of TGF-β1 in plasma (ELISA), rat carrageenan model; assay type: in vivo; conditions: 6 hours after carrageenan induction, FIG. 4
Procedure: as §1
A rat pain model was produced by subcutaneously injecting 0.1 mL of a 1% A-carrageenan (manufactured by SIGMA) solution into the plantar surface of the rat hind paw with reference to methods of Ohuchi et al. (Kazuo Ohuchi, “Seibutsu Yakkagaku Jikken Koza (Biological pharmaceutical science experimental course) (Vol. 12) Inflammation and Allergy I-1”, Chapter 1, foreign matter-induced inflammation model: pp. 30-51) and Masahiro Noguchi et al. (Masahiro Noguchi, et al: Enzymologic and pharmacologic profile of loxoprofen sodium and its metabolites. Biol. Pharm. Bull. 2005.28.2075-2079). It should be noted that the 1% λ-carrageenan solution was stirred with a stirrer until immediately before use (induction). After that, a paw volume was measured using a paw volume measuring apparatus. […]

IL-10 = assay: Measurement of IL-10 in plasma, rat carrageenan model; assay type: in vivo; conditions: oral hyaluronic acid 200 mg/kg/day 4 weeks
Procedure: as §1
(§4) The rat pain model under anesthesia with isoflurane (manufactured by Mylan Pharmaceuticals, Inc.) was subjected to abdominal section, and blood was collected through the caudal vena cava of the abdomen. A 5-mL disposable injection syringe filled with heparin sodium (Wako Pure Chemical Industries, Ltd.) and a 22-G injection needle were used for the blood collection. Plasma was rapidly separated from the collected blood using a centrifuge, dispensed into a tube, and cryopreserved until use.
The measurement of IL-10 in plasma was performed using “Quantikine Rat IL-10 (R & D Systems, Inc.).” The operations were performed in conformity with the accompanying protocol of the kit.

[3] = Measurement of concentration of hyaluronic acid in plasma; assay type: in vivo, rat
Procedure: as §1, §4
The measurement of the concentration of hyaluronic acid in plasma was performed using “Hyaluronan Assay Kit (Seikagaku Biobusiness Corporation).”
The concentrations of hyaluronic acid in plasma of the negative control (distilled water-administered group) and the test solution-administered group were measured. The concentrations of hyaluronic acid in plasma were measured before carrageenan induction and 6 hours and 8 hours after carrageenan induction.

[4] = 3 hours after carrageenan induction
[5] = 6 hours after carrageenan induction, vs negative control (distilled water), FIG. 6
[6] = 6 hours after carrageenan induction
[7] = 6 hours after carrageenan induction, vs negative control, hyaluronic acid 200 mg/kg/day 4 weeks, ibuprofen 100 mg/kg oral

| concentration of hyaluronic acid in plasma ([3]; 6 hours after carrageenan induction, FIG. 9) | concentration of hyaluronic acid in plasma ([3]; 8 hours after carrageenan induction, FIG. 9) | concentration of hyaluronic acid in plasma ([3]; before carrageenan induction, after continuous ingestion for 4 weeks (200 mg/kg/day), FIG. 9 left panel) | Molecule | total amount of bradykinin in exudate (bradykinin; [4]) | concentration of bradykinin in exudate (bradykinin; [5]) | total amount of bradykinin in exudate (bradykinin; [6]) | exudate amount of the paw ([1]; 3 hours after carrageenan induction, vs negative control, ibuprofen 100 mg/kg oral) | paw edema [1, 6] | exudate amount of the paw [1, 7] | total amount of PGE2 in exudate (PGE2; [4]) | concentration of PGE2 in exudate (PGE2; [4]) | total amount of PGE2 in exudate (PGE2; [6]) | concentration of PGE2 in exudate (PGE2; [6]) | amount of TGF-β1 mRNA relative to control (no addition of hyaluronic acid) [2] | concentration of bradykinin in exudate (bradykinin; 3 hours after carrageenan induction, vs distilled water group, FIG. 6) | concentration of bradykinin in exudate compared to positive control (ibuprofen) (bradykinin; 3 hours and 6 hours after carrageenan induction, FIG. 6) | paw volume ([1]; 6 hours after carrageenan induction, vs negative control, hyaluronic acid 200 mg/kg/day 4 weeks, ibuprofen 100 mg/kg oral, FIG. 2) | concentration of TGF-β in plasma compared to positive control (ibuprofen) (TGF-β1; same timing) | concentration of TGF-β in plasma (TGF-β1; hyaluronic acid 200 mg/kg/day 4 weeks) | increase in IL-10 in plasma (IL-10) |
| --- | --- | --- | --- | --- | --- | --- | --- | --- | --- | --- | --- | --- | --- | --- | --- | --- | --- | --- | --- | --- |
| – | – | – | CC(C)Cc1ccc(C(C)C(=O)O)cc1 (centres unmarked) [ibuprofen, reference compound] | smaller than those in the negative control | significantly smaller concentration of bradykinin than that in the negative control | smaller than those in the negative control (statistically significant 6 hours after carrageenan induction) | significantly smaller than those in the negative control | milder than in the negative control | significantly smaller than those in the negative control | smaller than those in the negative control | significantly smaller than those in the negative control | smaller than those in the negative control (statistically significant 6 hours after carrageenan induction) | significantly smaller than those in the negative control | – | – | – | – | – | – | – |
| – | – | – | hyaluronic acid [listing 1 of 2 here] | – | – | – | – | – | – | – | – | – | – | 2.14 times | – | – | – | – | – | – |
| almost no change | almost no change | did not cause any change | hyaluronic acid [listing 2 of 2 here] | – | significantly smaller than those in the distilled water group | significantly smaller than that in the negative control | – | milder than in the negative control | smaller than that in the negative control | – | – | significantly smaller than that in the negative control | significantly smaller than that in the negative control | – | significantly smaller than those in the distilled water group | lower than those in the positive control | significantly smaller than that in the negative control | higher than the concentration of TGF-β in the positive control | increased remarkably | not observed |
